Entries after “also recorded” stand apart in the source; their conditions may differ.
Columns and labels:
Type in all cases: in vivo
[1] = test system: rat scopolamine-induced dry eye model; experiment: Observation of superficial punctate keratitis (SPK) in a rat scopolamine-induced dry eye model
Procedure: (§1) 1.0 w/v % compound (1) suspension eye drop was administered for an extended period using a rat scopolamine-induced dry eye model prepared by the same method as Test Example 2. The model was treated under a low humidity environment (20% RH or less) only when measuring the number of blinks.
(§2) 5 μL of 1.0 w/v % compound (1) suspension eye drop and vehicle eye drop was administered to the right eye 4 times a day by using a micropipette.
(§3) An effect of improving SPK (SPK score) was evaluated by the same method as Test Example 1 on day 8 of sample administration. The number of blinks of the right eye was measured for 5 minutes under a low humidity environment after 4 hours from the initial administration on day 7 of administration (2 weeks post-surgery) by the same method as Text Example 2.

[2] = test system: Vi/Vc zone of the medulla oblongata; experiment: Measurement of c-Fos positive cell count in the Vi/Vc zone of the medulla oblongata, rat scopolamine-induced dry eye model; conditions: 0.3 w/v % suspension eye drop
Procedure: 5 μL of eye drop was administered to the right eye using a micropipette, 4 times a day with an interval of 2 hours or longer. A vehicle eye drop was administered to the Sham group.
After a rat was allowed to bleed to death by perfusion of saline, Zamboni's Fixative was perfused to extract the medulla oblongata. After sectioning the extracted medulla oblongata, the medulla oblongata was stained by immunohistochemical staining by using an anti-c-Fos antibody (product name: Rabbit Anti-Human c-Fos Polyclonal Antibody, sc-52, Santa Cruz Biotechnology, Inc.).

[3] = test system: rat scopolamine-induced dry eye model; experiment: Number of blinks under a low humidity environment in a rat scopolamine-induced dry eye model; conditions: for number of blinks within 5 minutes / number of blinks within 5 minutes vs vehicle at 0.5 hours: single administration; for number of blinks within 5 minutes: 0.5 hours after
Procedure: Compound (1) was used as a tested substance. In the same manner as Test Example 1, compound (1) was suspended in a buffer to prepare suspension eye drops with a concentration of compound (1) of 0.1 w/v %, 0.3 w/v %, and 1.0 w/v %. A compound (1)-free vehicle eye drop consisting of only a vehicle was also prepared as a control group.
A rat scopolamine-induced dry eye model was prepared by the same method as Test Example 1.
After about 2.5 hours from implanting an osmotic pump, dry air supplied from an air compressor was sent into an experiment chamber (SJ-1500N, Natsume Seisakusho) to create a low humidity environment (20% RH or lower).
5 μL of a vehicle eye drop or 0.1 w/v %, 0.3 w/v %, or 1.0 w/v % compound (1) suspension eye drop was administered once to the right eye using a micropipette, 0.5 hours before measuring the number of blinks.
After 8 days or more from starting raising the rats in a low humidity environment, the rats were taken out from a breeding cage. The animals were placed in a cage comprised of chain link fencing on all sides (behavior measurement environment cage) to facilitate measurement of the number of blinks. After acclimation for 0.5 hours under a normal environment, the behavior measurement environment cage was transferred to an experiment chamber, and the number of blinks of the right eye of rats was measured for 5 minutes under a low humidity environment. A test was conducted in four separate phases using the same animals after a drug withdrawal period of 2 days or more (crossover test).
By using the same evaluation method as Text Example 2, the sustainability of an effect of improving a subjective symptom was examined.
as §1, §2, §3

`O=C(/C=C1\CCOc2cc(C(F)(F)F)ccc21)Nc1cccc2c1C[C@H](O)CC2` [compound (1), (E)-2-(7-trifluoromethylchroman-4-ylidene)-N-((7R)-7-hydroxy-5,6,7,8-tetrahydronaphthalen-1-yl)acetamide] was tested, and the “SPK score compared to a vehicle eye drop” value ([1]; 0.3 w/v % suspension eye drop, after 7 days from administration (15 days post-surgery)) was “significantly reduced”, the “SPK score effect compared to a vehicle eye drop” value ([1]; 0.3 w/v % suspension eye drop, after 14 days from administration (22 days post-surgery)) was “sustained” and the “SPK score compared to a vehicle eye drop” value ([1]; 1.0 w/v % suspension eye drop, 4 times a day, 8 days of repeated administration (Example 4)) was “significantly reduced”. The “c-Fos positive cell count in the Vi/Vc zone of the medulla oblongata compared to a vehicle eye drop” value ([2]; 14 days of administration) was “reduced”, the “c-Fos positive cell count” value ([2]; SCOP model, 5 μL right eye 4 times a day for 14 days, Vi/Vc zone, 22 days post-surgery) was 8.8 ± 3.8 cells/section and the “number of blinks within 5 minutes” value ([3]; 0.1 w/v % suspension eye drop, low humidity) was “reduced”. The “number of blinks within 5 minutes” value ([3]; 0.3 w/v % suspension eye drop, low humidity) was “significant effect”, the “number of blinks within 5 minutes compared to a vehicle eye drop” value ([3]; 1.0 w/v % suspension eye drop, repeated administration 4 times a day, 4 hours after initial administration on day 7, low humidity (Example 4)) was “reduced” and the “number of blinks within 5 minutes” value ([3]; 1.0 w/v % suspension eye drop, low humidity (Test Example 2)) was “significant effect”. For the same compound, the “number of blinks within 5 minutes vs vehicle at 0.5 hours” value (from here on “number … vs vehicle at 0.5 hours”) ([3]; 1.0 w/v % suspension eye drop, after 0.5 hours (Example 3)) was “significantly reduced; also recorded: reduced significantly”, the “number … vs vehicle at 0.5 hours” value ([3]; 1.0 w/v % suspension eye drop, after 4 hours (Example 3)) was “significantly reduced; also recorded: reduced significantly” and the “number … vs vehicle at 0.5 hours” value ([3]; 1.0 w/v % suspension eye drop, after 8 hours (Example 3)) was “reduced”.

Source: patent US12533337B2, “Pharmaceutical drug containing heterocyclidene acetamide derivative” (SENJU PHARMACEUTICAL CO., LTD., priority 2019, dated 2026)
